Measured values published in patent US20230144211A1, “ANTIFOLATE LINKER-DRUGS AND ANTIBODY-DRUG CONJUGATES” (Byondis B.V., priority 2020, published 2023).

How the values were obtained:
Experiment in all cases: In vitro cell viability assay (CellTiter-Glo, 6 days)
[1] = system: Jurkat NucLight Red cells; type: cell-based, human; settings: free antifolate drugs
Experimental: (§1) FaDu, BxPC-3, HeLa, MV4-11, and RAJI cell lines were obtained from Deutsche Sammlung von Mikroorganismen und Zellkulturen (Leipzig, Germany). Jurkat NucLight Red cells were obtained from Essen BioScience Inc. (Ann Arbor, Mich., USA). SK-BR-3 and SK-OV-3 cells were cultured in McCoys 5A medium (Lonza; Walkersville, Md., USA) supplemented with 10% v/w Fetal Bovine Serum (FBS), Heat-inactivated (HI) (Gibco-Life Technologies; Carlsbad, Calif.) and 80 U/mL Pen/Strep (Gibco-Life Technologies), at 37° C. in a humidified incubator under 5% CO2 atmosphere. SW-620 cells were similarly maintained in RPMI 1640 medium (Lonza), containing 10% v/w FBS HI and 80 U/mL Pen/Strep. A-549 cells were similarly maintained in F-12K Nutrient Mixture (1×) (Gibco-Life Technologies) media supplemented with 80 U/mL Pen/Strep and 5% v/w FBS, which was Qualified (Q) (Gibco-Life Technologies). BT-474 and AU-565 cells were similarly maintained in RPMI 1640 medium (Lonza), containing 10% v/w FBS, which was Qualified (Q) (Gibco-Life Technologies), and 80 U/mL Pen/Strep. […] Jurkat NucLight Red cells were similarly maintained in RPMI 1640 medium (Lonza), containing 10% v/w FBS HI, 80 U/mL Pen/Strep and 0.5 μg/mL Puromycin (Gibco-Life Technologies). FaDu cells were cultured in EMEM medium (Lonza) supplemented with 10% v/w FBS HI (Gibco-Life Technologies), 1× GlutaMAX (Gibco-Life Technologies), and 80 U/mL Pen/Strep (Gibco-Life Technologies), at 37° C. in a humidified incubator under 5% CO2 atmosphere.
(§2) After an overnight incubation, 10 serial log 10 dilutions of the free drugs were made in DMSO (Sigma-Aldrich). These free drug dose-response curves were 10-times further diluted in complete growth medium. For the ADCs according to the invention 10 serial log 10 dilutions were made in complete growth medium. 10 μL of a composition comprising a free drug or an ADC according to the invention was added to the assay plate (final DMSO content for free drugs was 1%). […] Cell viability was assessed after 6 days using a luminescent assay kit (CellTiter-Glo™ (CTG), Promega Corporation) according to the manufacturer's instructions. Percentage cell survival was calculated by dividing the measured luminescence for each free drug or ADC according to the concentration with the average mean of untreated cells (1% or 0.1% DMSO control (for free drugs) or 100% complete growth medium (for ADCs)) multiplied by 100.
(§3) Curves were fitted by non-linear regression using the sigmoidal dose-response equation with variable slope (four parameters) using curve-fitting software (GraphPad Prism, version 9.4.0 for Windows, GraphPad, San Diego, Calif. or Electronic Laboratory Notebook (ELN) add-in BioAssay, version 19.1.0.0218, Perkin Elmer, Waltham, Mass.). Relative IC50 values were calculated as the concentration that gives a response halfway between bottom and top of the curve, when using a 4-parameter logistic fit. Data were reported as mean IC50 value of at least one experiment performed in duplicate.

AU-565 cells = type: cell-based, human
Experimental: as §1
as §2, with “Cell viability was assessed after 6 days using a luminescent assay kit (CellTiter-Glo™ (CTG), Promega Corporation) according to the manufacturer's instructions.” left out
as §3

SK-BR-3 cells = type: cell-based, human
Experimental: as §1
as §2, with “Cell viability was assessed after 6 days using a luminescent assay kit (CellTiter-Glo™ (CTG), Promega Corporation) according to the manufacturer's instructions.” left out
as §3

A-549 cells = type: cell-based; settings: Homo sapiens, A549; free antifolate drugs, Table 1a; $ steep hillslope
Experimental: Human tumor cell lines SK-BR-3, SW-620, A-549, BT-474, Jurkat Clone E6-1, AU-565, and SK-OV-3 were obtained from American Type Culture Collection (Rockville, Md., USA). FaDu, BxPC-3, HeLa, MV4-11, and RAJI cell lines were obtained from Deutsche Sammlung von Mikroorganismen und Zellkulturen (Leipzig, Germany). Jurkat NucLight Red cells were obtained from Essen BioScience Inc. (Ann Arbor, Mich., USA). SK-BR-3 and SK-OV-3 cells were cultured in McCoys 5A medium (Lonza; Walkersville, Md., USA) supplemented with 10% v/w Fetal Bovine Serum (FBS), Heat-inactivated (HI) (Gibco-Life Technologies; Carlsbad, Calif.) and 80 U/mL Pen/Strep (Gibco-Life Technologies), at 37° C. in a humidified incubator under 5% CO2 atmosphere. SW-620 cells were similarly maintained in RPMI 1640 medium (Lonza), containing 10% v/w FBS HI and 80 U/mL Pen/Strep. A-549 cells were similarly maintained in F-12K Nutrient Mixture (1×) (Gibco-Life Technologies) media supplemented with 80 U/mL Pen/Strep and 5% v/w FBS, which was Qualified (Q) (Gibco-Life Technologies). BT-474 and AU-565 cells were similarly maintained in RPMI 1640 medium (Lonza), containing 10% v/w FBS, which was Qualified (Q) (Gibco-Life Technologies), and 80 U/mL Pen/Strep. Jurkat Clone E6-1, BxPC-3, HeLa, MV4-11, and RAJI cells were similarly maintained in RPMI 1640 medium (Lonza), containing 10% v/w FBS HI and 80 U/mL Pen/Strep. Jurkat NucLight Red cells were similarly maintained in RPMI 1640 medium (Lonza), containing 10% v/w FBS HI, 80 U/mL Pen/Strep and 0.5 μg/mL Puromycin (Gibco-Life Technologies). FaDu cells were cultured in EMEM medium (Lonza) supplemented with 10% v/w FBS HI (Gibco-Life Technologies), 1× GlutaMAX (Gibco-Life Technologies), and 80 U/mL Pen/Strep (Gibco-Life Technologies), at 37° C. in a humidified incubator under 5% CO2 atmosphere.
as §2, with “Cells in complete growth medium were plated in 96-well plates (90 μL/well) and incubated at 37° C., 5% CO2 at the following cell densities: 6500 SK-BR-3, 4000 SW-620, 2500 A-549, 10000 BT-474, 3000 Jurkat Clone E6-1, 5000 AU-565, 1250 FaDu, 1250 BxPC-3, 1000 HeLa, 7500 MV4-11, 1000 RAJI, 3000 Jurkat NucLight Red, and 4000 SK-OV-3 cells per well. After” for “After”
as §3

[2] = Homo sapiens, AU565, free antifolate drugs, Table 1b
[3] = Homo sapiens, SK-BR-3, free antifolate drugs, Table 1b, # no full dose-response curve
[4] = Homo sapiens, AU565, free antifolate drugs, Table 1c
[5] = Homo sapiens, SK-BR-3, free antifolate drugs, Table 1c
[6] = free antifolate drugs, Table 1c

## Nc1ccc(C(=O)NCCC[C@H](NC(=O)c2ccc(OCc3cnc4nc(N)nc(N)c4n3)cc2)C(=O)O)c(-c2nn[nH]n2)c1 [AFD-001]
[1]; Homo sapiens, Jurkat, Table 1b
  IC50: 4.92 nM
AU-565 cells; [2]
  IC50: 9.18 nM
SK-BR-3 cells; [3]
  IC50: 25 nM

## Nc1ccc(C(=O)NCCC[C@H](NC(=O)c2ccc(NCc3cnc4nc(N)nc(N)c4n3)c(O)c2)C(=O)O)c(-c2nn[nH]n2)c1 [AFD-002]
[1]; Homo sapiens, Jurkat, Table 1b
  IC50: 15 nM
AU-565 cells; [2]
  IC50: 14 nM
SK-BR-3 cells; [3]
  IC50: 20 nM

## C#CCN(Cc1cnc2nc(N)nc(N)c2n1)c1ccc(C(=O)N[C@@H](CCCNC(=O)c2ccc(N)cc2-c2nn[nH]n2)C(=O)O)cc1 [AFD-003]
[1]; Homo sapiens, Jurkat, Table 1b
  IC50: 1.4 nM
AU-565 cells; [2]
  IC50: 0.98 nM
SK-BR-3 cells; [3]
  IC50: 2.09 nM

## Nc1ccc(C(=O)NCCC[C@H](NC(=O)c2ccc(NCc3cnc4nc(N)nc(N)c4n3)cc2O)C(=O)O)c(-c2nn[nH]n2)c1 [AFD-004]
[1]; Homo sapiens, Jurkat, Table 1c
  IC50: 0.68 nM
AU-565 cells; [4]
  IC50: 0.37 nM
SK-BR-3 cells; [5]
  IC50: 0.67 nM

## Nc1ccc(C(=O)NCCC[C@H](NC(=O)c2ccc(SCc3cnc4nc(N)nc(N)c4n3)cc2)C(=O)O)c(-c2nn[nH]n2)c1 [AFD-005]
[1]; Homo sapiens, Jurkat, Table 1c
  IC50: 5.6 nM
AU-565 cells; [4]
  IC50: ~8 nM
SK-BR-3 cells; [5]
  IC50: ~22 nM

## Nc1ccc(C(=O)NCCC[C@H](NC(=O)c2ccc(NCc3cnc4nc(N)nc(N)c4n3)c(N)c2)C(=O)O)c(-c2nn[nH]n2)c1 [AFD-006]
[1]; Homo sapiens, Jurkat, Table 1c
  IC50: 5.98 nM
AU-565 cells; [4]
  IC50: 2.8 nM
SK-BR-3 cells; [5]
  IC50: 5.15 nM

## Nc1ccc(C(=O)NCCC[C@H](NC(=O)c2ccc3c(c2)CCCN3Cc2cnc3nc(N)nc(N)c3n2)C(=O)O)c(-c2nn[nH]n2)c1 [AFD-007]
[1]; Homo sapiens, Jurkat, Table 1c
  IC50: 2.01 nM
AU-565 cells; [4]
  IC50: 0.68 nM
SK-BR-3 cells; [5]
  IC50: 1.06 nM

## Nc1ccc(C(=O)NCCC[C@H](NC(=O)c2ccc3c(c2)CCN3Cc2cnc3nc(N)nc(N)c3n2)C(=O)O)c(-c2nn[nH]n2)c1 [AFD-008]
[1]; Homo sapiens, Jurkat, Table 1c
  IC50: 0.87 nM
AU-565 cells; [4]
  IC50: 0.76 nM
SK-BR-3 cells; [5]
  IC50: 1.5 nM

## Nc1ccc(C(=O)NCCC[C@H](NC(=O)c2ccc3c(ccn3Cc3cnc4nc(N)nc(N)c4n3)c2)C(=O)O)c(-c2nn[nH]n2)c1 [AFD-009]
[1]; Homo sapiens, Jurkat, Table 1c
  IC50: 1.96 nM
AU-565 cells; [4]
  IC50: 1.15 nM
SK-BR-3 cells; [5]
  IC50: 2.82 nM

## Nc1ccc(C(=O)NCCC[C@H](NC(=O)c2ccc(NCc3cnc4nc(N)nc(N)c4n3)cc2N)C(=O)O)c(-c2nnn[nH]2)c1 [AFD-010]
[1]; Homo sapiens, Jurkat, Table 1c
  IC50: 2.31 nM
AU-565 cells; [4]
  IC50: 1.17 nM
SK-BR-3 cells; [5]
  IC50: 2.4 nM

## CN(Cc1cnc2nc(N)nc(N)c2n1)c1ccc(C(=O)N[C@@H](CCCNC(=O)c2ccc(N)cc2-c2nn[nH]n2)C(=O)O)s1 [XC5, (S)-5-(4-amino-2-(2H-tetrazol-5-yl)benzamido)-2-(5-(((2,4-diaminopteridin-6-yl)methyl)(methyl)amino)thiophene-2-carboxamido)pentanoic acid]
[1]; Table 1c
  IC50: ~30 nM
AU-565 cells; [6]
  IC50: ~28 nM
SK-BR-3 cells; [6]
  IC50: ~100 nM

## CN(Cc1cnc2nc(N)nc(N)c2n1)c1ccc(C(=O)N[C@@H](CCCNC(=O)c2ccc(N)cc2-c2nn[nH]n2)C(=O)O)s1 [XC9, (S)-5-(4-Amino-2-(2H-tetrazol-5-yl)benzamido)-2-(5-(((2,4-diaminopteridin-6-yl)methyl)(methyl)amino)thiophene-2-carboxamido)pentanoic acid]
[1]; Table 1c
  IC50: 2.41 nM
AU-565 cells; [6]
  IC50: 1.95 nM
SK-BR-3 cells; [6]
  IC50: 3.77 nM

## Nc1ccc(-c2cn(CCC[C@H](NC(=O)c3ccc(NCc4cnc5nc(N)nc(N)c5n4)cc3)C(=O)O)nn2)c(C(=O)O)c1 [XR22, (S)-5-Amino-2-(1-(4-carboxy-4-(4-(((2,4-diaminopteridin-6-yl)methyl)amino)benzamido)butyl)-1H-1,2,3-triazol-4-yl)benzoic acid]
A-549 cells
  IC50: ~2.5 nM
AU-565 cells; Homo sapiens, AU565, free antifolate drugs, Table 1a
  IC50: 0.9 nM
SK-BR-3 cells; Homo sapiens, SK-BR-3, free antifolate drugs, Table 1a
  IC50: 2.2 nM

## Nc1ccc(C(=O)NCCC[C@H](NC(=O)c2ccc(NCc3ccc4nc(N)nc(N)c4c3Cl)s2)C(=O)O)c(-c2nnn[nH]2)c1 [XT126, (S)-5-(4-Amino-2-(1H-tetrazol-5-yl)benzamido)-2-(5-(((2,4-diamino-5-chloroquinazolin-6-yl)methyl)amino)thiophene-2-carboxamido)pentanoic acid]
[1]; Homo sapiens, Jurkat, Table 1b
  IC50: 5.01 nM
AU-565 cells; [2]
  IC50: 2.37 nM
SK-BR-3 cells; [3]
  IC50: 2.91 nM

## Nc1ccc(C(=O)NCCC[C@H](NC(=O)c2ccc(CCc3cnc4nc(N)nc(N)c4n3)cc2)C(=O)O)c(-c2nnn[nH]2)c1 [XT128, (S)-5-(4-Amino-2-(1H-tetrazol-5-yl)benzamido)-2-(4-(2-(2,4-diaminopteridin-6-yl)ethyl)benzamido)pentanoic acid]
[1]; Homo sapiens, Jurkat, Table 1b
  IC50: 0.61 nM
[1]; Homo sapiens, Jurkat, Table 1c
  IC50: 0.71 nM
AU-565 cells; [2]
  IC50: 0.34 nM
AU-565 cells; [4]
  IC50: 0.36 nM
SK-BR-3 cells; [3]
  IC50: 0.57 nM
SK-BR-3 cells; [5]
  IC50: 0.78 nM

## COc1cc(C(=O)N[C@@H](CCCNC(=O)c2ccc(N)cc2-c2nnn[nH]2)C(=O)O)ccc1NCc1cnc2nc(N)nc(N)c2n1 [XT132, (S)-5-(4-Amino-2-(1H-tetrazol-5-yl)benzamido)-2-(4-(((2,4-diaminopteridin-6-yl)methyl)amino)-3-methoxybenzamido)pentanoic acid]
[1]; Homo sapiens, Jurkat, Table 1b
  IC50: 1.19 nM
AU-565 cells; [2]
  IC50: 0.97 nM
SK-BR-3 cells; [3]
  IC50: 2.15 nM
